Data: ChEMBL document CHEMBL5046297, “Discovery of a Colon-Targeted Azo Prodrug of Tofacitinib through the Establishment of Colon-Specific Delivery Systems Constructed by 5-ASA-PABA-MAC and 5-ASA-PABA-Diamine for the Treatment of Ulcerative Colitis” (J Med Chem, 2022)
The source made the active and inactive calls. No cut-off for these calls is given here.

Assays:
Mus musculus [1] = assay: Anti-ulcerative colitis activity against BALB/c oxazolone-induced ulcerative colitis mouse model assessed as preserved intestinal mucosal epithelial integrity at 1.5 mg/kg, po by H and E staining based histopathological analysis; format: functional, organism-based
Mus musculus [2] = assay: Anti-ulcerative colitis activity against oxazolone induced ulcerative colitis Balb/c mouse model assessed as prevention of body weight loss at 1.5 mg/kg, po bid measured after 36 hrs; format: functional, organism-based
[3] = Acute toxicity in Kunming mouse model assessed as increase in body weight at 2000 mg/kg, po measured for 7 days; format: organism-based; settings: in vivo, 168 h, time 7 day
[4] = Ratio of prodrug conversion in BALB/c mouse intestine assessed as tofacitinib AUC(0 to 12 hrs) at 22.5 mg/kg, po to prodrug conversion in BALB/c mouse duodenum assessed as tofacitinib AUC(0 to 12 hrs) at 22.5 mg/kg, po; format: ADME, organism-based; settings: in vivo
[5] = Prodrug conversion in Sprague-Dawley rat assessed as Tmax of tofacitinib at 22.5 mg/kg, po measured up to 20 hrs by LC-MS/MS analysis; format: ADME, organism-based; settings: in vivo
Mus musculus [6] = assay: Immunosuppressive activity in BALB/c mouse assessed as reduction in spleen index at 1.5 mg/kg, ig bid measured after 4 days by flow cytometry analysis; format: functional, organism-based; settings: time 4.0 day
[7] = Prodrug conversion in BALB/c mouse plasma assessed as tofacitinib AUC(0 to 12 hrs) at 22.5 mg/kg, po measured upto 12 hrs by LC-MS/MS analysis; format: ADME, organism-based; set-up: route oral, dose 22.5 mg/kg, time <=12; settings: in vivo
Mus musculus [8] = assay: Anti-ulcerative colitis activity against BALB/c oxazolone-induced ulcerative colitis mouse model assessed as prevention of oxazolone-induced increase in shortening of colon length at 1.5 mg/kg, po bid measured after 4 days; format: functional, organism-based; settings: time 4.0 day
[9] = Acute toxicity in Kunming mouse assessed as change in urea level in kidney at 2000 mg/kg, po measured for 7 days; format: organism-based; settings: in vivo, 168 h, time 7 day
Mus musculus [10] = assay: Anti-ulcerative colitis activity against BALB/c oxazolone-induced ulcerative colitis mouse model assessed as prevention of oxazolone-induced increase in colon weight at 1.5 mg/kg, po bid measured after 4 days; format: functional, organism-based; settings: time 4.0 day
[11] = Prodrug conversion in Sprague-Dawley rat colon content suspension assessed as tofacitinib release measured upto 8 hrs by HPLC analysis; format: ADME, tissue-based
[12] = Prodrug conversion in Sprague-Dawley rat assessed as elimination half life of tofacitinib at 22.5 mg/kg, po measured up to 20 hrs by LC-MS/MS analysis; format: ADME, organism-based; settings: in vivo
[13] = Acute toxicity in Kunming mouse assessed as change in ALT level in liver at 2000 mg/kg, po measured for 7 days; format: organism-based; settings: in vivo, 168 h, time 7 day
[14] = Ratio of prodrug conversion in BALB/c mouse intestine assessed as tofacitinib AUC(0 to 12 hrs) at 22.5 mg/kg, po to prodrug conversion in BALB/c mouse ileum assessed as tofacitinib AUC(0 to 12 hrs) at 22.5 mg/kg, po; format: ADME, organism-based; settings: in vivo
[15] = Toxicity in Kunming mouse assessed as change in spleen index at 2000 mg/kg, po measured for 7 days; format: organism-based; settings: in vivo, 168 h, time 7 day
Mus musculus [16] = assay: Anti-ulcerative colitis activity against BALB/c mouse model of oxazolone-induced ulcerative colitis assessed as prevention of oxazolone-induced increase in colon density at 1.5 mg/kg, po bid measured after 4 days; format: functional, organism-based; settings: time 4.0 day
[17] = Prodrug conversion in BALB/c mouse ileum assessed as tofacitinib AUC(0 to 12 hrs) at 22.5 mg/kg, po measured upto 12 hrs by LC-MS/MS analysis; format: ADME, organism-based; set-up: route oral, dose 22.5 mg/kg, time <=12; settings: in vivo
[18] = Toxicity in Kunming mouse assessed as change in liver index at 2000 mg/kg, po measured for 7 days; format: organism-based; settings: in vivo, 168 h, time 7 day
[19] = Acute toxicity in Kunming mouse assessed as change in creatine level in kidney at 2000 mg/kg, po measured for 7 days; format: organism-based; settings: in vivo, 168 h, time 7 day
[20] = Chemical stability in simulated intestinal fluid assessed as parent compound remaining incubated for 12 hrs by LC-MS/MS analysis; format: ADME, physicochemical; settings: simulated gi fluid
Mus musculus [21] = assay: Anti-ulcerative colitis activity against oxazolone induced ulcerative colitis BALB/c mouse model assessed as improved stool consistency at 1.5 mg/kg, po bid measured after 36 hrs; format: functional, organism-based
Mus musculus [22] = assay: Anti-ulcerative colitis activity against oxazolone-induced ulcerative colitis BALB/c mouse model assessed as improvement in spleen index at 1.5 mg/kg, po bid measured after 4 days; format: functional, organism-based; settings: time 4.0 day
[23] = Prodrug conversion in BALB/c mouse jejunum assessed as tofacitinib AUC(0 to 12 hrs) at 22.5 mg/kg, po measured upto 12 hrs by LC-MS/MS analysis; format: ADME, organism-based; set-up: route oral, dose 22.5 mg/kg, time <=12; settings: in vivo
Mus musculus [24] = assay: Anti-ulcerative colitis activity against BALB/c oxazolone-induced ulcerative colitis mouse model assessed as prevention of oxazolone-induced leukocyte infiltration at 1.5 mg/kg, po by H and E staining based histopathological analysis; format: functional, organism-based
[25] = Prodrug conversion in BALB/c mouse duodenum assessed as tofacitinib AUC(0 to 12 hrs) at 22.5 mg/kg, po measured upto 12 hrs by LC-MS/MS analysis; format: ADME, organism-based; set-up: route oral, dose 22.5 mg/kg, time <=12; settings: in vivo
[26] = Prodrug conversion in Sprague-Dawley rat assessed as AUC (0 to infinity) of tofacitinib at 22.5 mg/kg, po measured up to 20 hrs by LC-MS/MS analysis; format: ADME, organism-based; set-up: route oral, dose 22.5 mg/kg, time <=20; settings: in vivo
[27] = Acute toxicity in Kunming mouse assessed as change in AST level in liver at 2000 mg/kg, po measured for 7 days; format: organism-based; settings: in vivo, 168 h, time 7 day
[28] = Ratio of prodrug conversion in BALB/c mouse intestine assessed as tofacitinib AUC(0 to 12 hrs) at 22.5 mg/kg, po to prodrug conversion in BALB/c mouse colon assessed as tofacitinib AUC(0 to 12 hrs) at 22.5 mg/kg, po; format: ADME, organism-based; settings: in vivo
Mus musculus [29] = assay: Anti-ulcerative colitis activity against oxazolone induced ulcerative colitis BALB/c mouse model assessed as improved stool blood at 1.5 mg/kg, po bid measured after 36 hrs; format: functional, organism-based
[30] = Toxicity in Kunming mouse assessed as change in kidney index at 2000 mg/kg, po measured for 7 days; format: organism-based; settings: in vivo, 168 h, time 7 day
Mus musculus [31] = assay: Anti-ulcerative colitis activity against oxazolone induced ulcerative colitis Balb/c mouse model assessed as prevention of body weight loss at 1.5 mg/kg, po bid incubated for 24 hrs; format: functional, organism-based
Mus musculus [32] = assay: Anti-ulcerative colitis activity against BALB/c oxazolone-induced ulcerative colitis mouse model assessed as prevention of oxazolone-induced edema at 1.5 mg/kg, po by H and E staining based histopathological analysis; format: functional, organism-based
[33] = Chemical stability of compound in pH 7.4 PBS buffer at 100 uM incubated for 24 hrs by HPLC analysis; format: physicochemical; settings: pH 7.4, 24 h
[34] = Chemical stability in simulated gastric fluid assessed as parent compound remaining incubated for 12 hrs by LC-MS/MS analysis; format: ADME, physicochemical; settings: simulated gi fluid
[35] = Prodrug conversion in Sprague-Dawley rat assessed as Cmax of tofacitinib at 22.5 mg/kg, po measured up to 20 hrs by LC-MS/MS analysis; format: ADME, organism-based; set-up: route oral, dose 22.5 mg/kg, time <=20; settings: in vivo
[36] = Acute toxicity in Kunming mouse assessed as animal death at 2000 mg/kg, po measured for 7 days; format: organism-based; settings: in vivo, 168 h, time 7 day
[37] = Prodrug conversion in Sprague-Dawley rat assessed as tofacitinib release at 22.5 mg/kg, po measured after 1 hr by HPLC analysis; format: ADME, organism-based; settings: in vivo
[38] = Chemical stability of compound in pH 1.2 HCl buffer at 100 uM incubated for 24 hrs by HPLC analysis; format: physicochemical; settings: pH 1.2, 24 h
[39] = Prodrug conversion in BALB/c mouse colon assessed as tofacitinib AUC(0 to 12 hrs) at 22.5 mg/kg, po measured upto 12 hrs by LC-MS/MS analysis; format: ADME, organism-based; set-up: route oral, dose 22.5 mg/kg, time <=12; settings: in vivo
[40] = Chemical stability of compound in pH 4.5 PBS buffer at 100 uM incubated for 24 hrs by HPLC analysis; format: physicochemical; settings: pH 4.5, 24 h
[41] = Ratio of prodrug conversion in BALB/c mouse intestine assessed as tofacitinib AUC(0 to 12 hrs) at 22.5 mg/kg, po to prodrug conversion in BALB/c mouse jejunum assessed as tofacitinib AUC(0 to 12 hrs) at 22.5 mg/kg, po; format: ADME, organism-based; settings: in vivo
Mus musculus [42] = assay: Immunosuppressive activity in BALB/c mouse assessed as reduction in CD49+ NK cell count at 1.5 mg/kg, ig bid measured after 4 days by flow cytometry analysis; format: functional, organism-based; settings: time 4.0 day

C[C@@H]1CCN(C(=O)CC#N)C[C@@H]1N(C)c1ncnc2c1ccn2C(=O)N(C)CCN(C)C(=O)OCc1ccc(/N=N/c2ccc(O)c(C(=O)O)c2)cc1Cl
Activity (Mus musculus [1]): Active | Activity (Mus musculus [2]): Active | Activity [3]: Non-Toxic | Ratio AUC [4]: 1.48 | Tmax [5]: 8 h | Activity (Mus musculus [6]): inactive | AUC [7]: 4.5 nmol·h/mL | Activity (Mus musculus [8]): Active | Activity [9]: Non-Toxic | Activity (Mus musculus [10]): Active | Drug metabolism [11]: 3.22 mmol/L/h | beta t1/2 [12]: 3.09 h | Activity [13]: Non-Toxic | Ratio AUC [14]: 7.1 | Activity [15]: Non-Toxic | Activity (Mus musculus [16]): Active | AUC [17]: 357 nmol·h/mL | Activity [18]: Non-Toxic | Activity [19]: Non-Toxic | Stability [20]: Stable | Activity (Mus musculus [21]): Active | Activity (Mus musculus [22]): Active | AUC [23]: 193 nmol·h/mL | Activity (Mus musculus [24]): Active | AUC [25]: 99 nmol·h/mL | AUC [26]: 19.27 nmol·h/mL | Activity [27]: Non-Toxic | Ratio AUC [28]: 9.61 | Activity (Mus musculus [29]): Active | Activity [30]: Non-Toxic | Activity (Mus musculus [31]): Active | Activity (Mus musculus [32]): Active | Stability [33]: Stable | Stability [34]: Stable | Cmax [35]: 2490 nM | Activity [36]: Non-Toxic | Drug metabolism [37]: Metabolite_Detected | Stability [38]: Stable | AUC [39]: 1600 nmol·h/mL | Stability [40]: Stable | Ratio AUC [41]: 4.49 | Activity (Mus musculus [42]): inactive

Cc1cc(/N=N/c2ccc(O)c(C(=O)O)c2)ccc1COC(=O)N(C)CCN(C)C(=O)n1ccc2c(N(C)[C@H]3CN(C(=O)CC#N)CC[C@H]3C)ncnc21
Drug metabolism [11]: 2.72 mmol/L/h | Stability [20]: Stable | Stability [33]: Stable | Stability [34]: Stable | Stability [38]: Stable | Stability [40]: Stable

COc1cc(COC(=O)N(C)CCN(C)C(=O)n2ccc3c(N(C)[C@H]4CN(C(=O)CC#N)CC[C@H]4C)ncnc32)ccc1/N=N/c1ccc(O)c(C(=O)O)c1
Drug metabolism [11]: 2.46 mmol/L/h | Stability [20]: Stable | Stability [33]: Stable | Stability [34]: Stable | Stability [38]: Stable | Stability [40]: Stable
